Results on 1 molecule are retold here after PMC10980208, “A novel micellular fluorogenic substrate for quantitating the activity of 1-phosphatidylinositol 4,5-bisphosphate phosphodiesterase gamma (PLCγ) enzymes” (PLOS ONE, 2024).

For the assay, the target named is T1, PLCγ2-P522R (Homo sapiens, UniProt P16885, P522R).
T1 construct: gene PLCG2
T1 sequence (P16885 1-1195 P522R): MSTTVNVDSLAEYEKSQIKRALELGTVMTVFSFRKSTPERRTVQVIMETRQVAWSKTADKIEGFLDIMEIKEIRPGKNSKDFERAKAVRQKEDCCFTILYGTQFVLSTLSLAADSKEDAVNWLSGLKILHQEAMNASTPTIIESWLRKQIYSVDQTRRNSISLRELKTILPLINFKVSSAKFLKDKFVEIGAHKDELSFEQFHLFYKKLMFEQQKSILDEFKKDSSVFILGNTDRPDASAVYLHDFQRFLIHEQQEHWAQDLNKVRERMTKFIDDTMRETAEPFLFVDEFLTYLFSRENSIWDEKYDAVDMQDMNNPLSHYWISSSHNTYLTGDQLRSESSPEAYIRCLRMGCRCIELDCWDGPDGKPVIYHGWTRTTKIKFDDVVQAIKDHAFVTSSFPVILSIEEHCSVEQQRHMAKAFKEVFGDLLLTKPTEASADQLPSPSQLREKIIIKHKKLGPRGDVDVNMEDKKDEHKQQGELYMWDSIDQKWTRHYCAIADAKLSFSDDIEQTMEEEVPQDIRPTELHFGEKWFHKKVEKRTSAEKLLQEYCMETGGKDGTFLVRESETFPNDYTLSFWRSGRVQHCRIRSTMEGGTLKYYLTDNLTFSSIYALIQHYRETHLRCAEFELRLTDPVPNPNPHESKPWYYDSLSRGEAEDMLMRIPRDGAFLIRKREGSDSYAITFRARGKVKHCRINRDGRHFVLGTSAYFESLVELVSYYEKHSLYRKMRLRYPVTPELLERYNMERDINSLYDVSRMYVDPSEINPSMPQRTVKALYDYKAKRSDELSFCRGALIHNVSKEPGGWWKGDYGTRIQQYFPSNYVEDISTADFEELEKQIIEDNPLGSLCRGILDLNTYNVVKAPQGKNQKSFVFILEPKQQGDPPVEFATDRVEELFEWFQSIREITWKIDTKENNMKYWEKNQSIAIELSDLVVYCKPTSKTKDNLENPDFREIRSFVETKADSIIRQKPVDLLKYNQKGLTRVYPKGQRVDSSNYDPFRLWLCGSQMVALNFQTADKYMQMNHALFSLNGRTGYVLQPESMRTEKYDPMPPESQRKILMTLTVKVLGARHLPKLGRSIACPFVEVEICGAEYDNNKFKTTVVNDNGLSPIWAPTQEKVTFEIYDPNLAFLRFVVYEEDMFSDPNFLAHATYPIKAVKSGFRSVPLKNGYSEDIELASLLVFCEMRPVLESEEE
Kind of assay: fluorogenic micelle enzyme assay. The format is biochemical.

Structures are written as SMILES.

On to `CCCCCCCCCCCCCCCCOc1cc(COC(=O)Nc2ccc3c(C(F)(F)F)cc(=O)oc3c2)ccc1OP(=O)(O)O[C@@H]1[C@H](O)[C@H](O)[C@@H](OP(=O)(O)O)[C@H](OP(=O)(O)O)[C@H]1O` [C16CF3-coumarin], for which the “fluorogenic micelle enzyme assay” value is “both PLCγ1-D1665H and PLCγ2-P522R were able to process the C16CF3-coumarin substrate faster than the corresponding wild-type enzymes”.
